Laboratory results: patent publication EP3122315B1, “ACTIVE-INGREDIENT COMBINATIONS CONSISTING OF 4-HYDROXYACETOPHENONE AND ONE OR MORE GLYCERIN AND/OR OLIGOGLYCERIN ESTERS OF BRANCHED CHAINS AND/OR UNBRANCHED CHAINS OF ALKANE CARBOXYLIC ACIDS, AND COSMETIC OR DERMATOLOGICAL PREPARATIONS CONTAINING SAID ACTIVE-INGREDIENT COMBINATIONS” (Symrise AG, priority 2014, dated 2015)
Read-outs that look alike come from different tables or passages of the source.

Experiment: Solubility tests of 4-hydroxyacetophenone in cosmetic oil with or without glycerol ester additive
Conditions: for Löslichkeit "HAP" bei 35 °C / Löslichkeit "HAP" bei RT: solvent C12-15 Alkylbenzoate; for Löslichkeit "HAP" bei RT: room temperature (ca. 20 °C)
Method: Die Durchführung der Löslichkeitsversuche erfolgte bei 2 verschiedenen Temperaturen: Bei Raumtemperatur (ca. 20 °C) und bei 35 °C.
Das weiße, kristalline 4-Hydroxyacetophenon ("4-HAP") wurde in kleinen Portionen langsam (über mehrere Stunden) zum jeweiligen Lösungsmittel unter Rühren hinzugegeben, bis sich kein weiteres Material mehr lösen ließ. Hier war die Löslichkeitsgrenze erreicht. Nicht gelöstes Material war deutlich als milchiger Niederschlag oder einzelne Kristalle erkennbar. Das Additiv (der jeweilige Glycerinester) wurde ebenfalls in kleinen Portionen hinzugegeben.
Die Experimente bei 35°C wurden im Wasserbad durchgeführt. Die Temperatur wurde per Temperatursonde, welche mit dem Heizrührer verbunden war, konstant gehalten. Die Experimente wurden in verschraubten 15 ml Gläsern durchgeführt, um ein Verdampfen des Lösungsmittels zu verhindern. Die Löslichkeit wurde 12-24 Stunden nach der letzten Substanzzugabe gemessen, so dass sich das System equilibrieren konnte. […] Die Löslichkeitsversuche wurden in dem bekannten kosmetischen Öl "C12-15 Alkylbenzoate", erhältlich unter anderem unter dem Handelsnamen Tegesoft® TN B von der Firma Evonik, durchgeführt. Die Ergebnisse sind in Tabelle 1 wiedergegeben: Tabelle 1

Compound: CCCCCCCC(=O)OCC(O)CO (centres unmarked) [Glycerylcaprylat]
- Löslichkeit des Glycerylesters im verwendeten Lösungsmittel (kosmetischen öl): vollständig

Compound: CC(=O)c1ccc(O)cc1 [HAP, 4-Hydroxyacetophenon]
- Kristalle mit (Löslichkeit "HAP" bei 35 °C) (concentration at which undissolved crystals were seen, no glycerol ester, C12-15 Alkylbenzoate, 35 °C): 3%
- Kristalle bei (Löslichkeit "HAP" bei RT) (concentration at which undissolved crystals were seen, no glycerol ester, C12-15 Alkylbenzoate, room temperature): 2,25%
- Löslichkeit "HAP" bei 35 °C (no glycerol ester (Ohne), 35 °C water bath): 2,5%
- Löslichkeit "HAP" bei RT (no glycerol ester (Ohne), read 12-24 h after last addition): 2%
- Löslichkeit "HAP" bei RT (with 0,5 % Polyglyceryl-2-caprat): 2,25 % gelöst
- Löslichkeit "HAP" bei 35 °C (with 1 % Glycerylcaprylat, 35 °C): 3 % gelöst (Steigerung im Vergleich zu 2,5 % ohne Ester
- Löslichkeit "HAP" bei RT (with 1 % Glycerylcaprylat): 2,25 % gelöst
- Löslichkeit "HAP" bei 35 °C (with 1 % Polyglyceryl-2-caprat, 35 °C): 3 % gelöst (Steigerung im Vergleich zu 2,5 % ohne Ester)
- Löslichkeit "HAP" bei RT (with 1 % Polyglyceryl-2-caprat): < 2,25 % nicht vollständig gelöst

Compound: Polyglyceryl-2-caprat
- Löslichkeit des Glycerylesters im verwendeten Lösungsmittel (kosmetischen öl) (1 % of the ester in C12-15 Alkylbenzoate, 35°C): vollständig
- Löslichkeit des Glycerylesters im verwendeten Lösungsmittel (kosmetischen öl) (1 % of the ester in C12-15 Alkylbenzoate, RT): vollständig

Compound: CCCCCCCCCCCCCCCCCC(=O)OCC(O)CO (centres unmarked) [Glycerylstearate, reference compound]
- Einfluss auf die Löslichkeit von 4-Hydroxyacetophenon (known emulsifier used as additive, concentration not given): keinen Einfluss

Compound: Glycerylstearatcitrate [reference compound]
- Einfluss auf die Löslichkeit von 4-Hydroxyacetophenon: keinen Einfluss
